{"source": "ChEMBL document CHEMBL3352707", "about": "“Antimycobacterial activity of natural products and synthetic agents: pyrrolodiquinolines and vermelhotin as anti-tubercular leads against clinical multidrug resistant isolates of Mycobacterium tuberculosis” (Eur J Med Chem, 2015)", "type_in_all_cases": "functional", "key": {"[1]": {"system": "Mycobacterium tuberculosis", "test": "Antimycobacterial activity against isoniazid, rifampin, ethambutol, streptomycin, ofloxacin-resistant Mycobacterium tuberculosis after 7 days by microplate Alamar blue assay", "conditions": "168 h"}, "[2]": {"system": "Mycobacterium tuberculosis", "test": "Antimycobacterial activity against isoniazid, rifampin, streptomycin-resistant Mycobacterium tuberculosis after 7 days by microplate Alamar blue assay", "conditions": "168 h"}, "[3]": {"system": "Mycobacterium tuberculosis", "test": "Antimycobacterial activity against isoniazid, rifampin, streptomycin, ofloxacin-resistant Mycobacterium tuberculosis after 7 days by microplate Alamar blue assay", "conditions": "168 h"}, "[4]": {"system": "Mycobacterium tuberculosis", "test": "Antimycobacterial activity against isoniazid, rifampin, ethambutol, ofloxacin-resistant Mycobacterium tuberculosis after 7 days by microplate Alamar blue assay", "conditions": "168 h"}, "[5]": {"system": "Mycobacterium tuberculosis", "test": "Antimycobacterial activity against isoniazid, rifampin, ethambutol-resistant Mycobacterium tuberculosis after 7 days by microplate Alamar blue assay", "conditions": "168 h"}, "[6]": {"system": "Mycobacterium tuberculosis", "test": "Antimycobacterial activity against isoniazid, rifampin-resistant Mycobacterium tuberculosis after 7 days by microplate Alamar blue assay", "conditions": "168 h"}, "[7]": {"system": "Mycobacterium tuberculosis", "test": "Antimycobacterial activity against isoniazid, rifampin, ethambutol, streptomycin-resistant Mycobacterium tuberculosis after 7 days by microplate Alamar blue assay", "conditions": "168 h"}, "[8]": {"system": "Mycobacterium tuberculosis", "test": "Antimycobacterial activity against Ethionamide-resistant Mycobacterium tuberculosis H37Rv ATCC 35830 after 7 days by microplate Alamar blue assay", "conditions": "H37Rv ATCC 35830, 168 h"}, "[9]": {"system": "Mycobacterium tuberculosis", "test": "Antimycobacterial activity against pyrazinamide-resistant Mycobacterium tuberculosis H37Rv ATCC 35828 after 7 days by microplate Alamar blue assay", "conditions": "H37Rv ATCC 35828, 168 h"}}, "data": [{"smiles": "CO[C@H]1/C=C/O[C@@]2(C)Oc3c(C)c(O)c4c(O)c(c(/C=N/N5CCN(C)CC5)c(O)c4c3C2=O)NC(=O)/C(C)=C\\C=C\\[C@H](C)[C@H](O)[C@@H](C)[C@@H](O)[C@@H](C)[C@H](OC(C)=O)[C@@H]1C", "note": "[RIFAMPIN]", "values": [{"measurement": "MIC", "setting": "[1]", "result": "≥ 2", "unit": "µg/mL"}, {"measurement": "MIC", "setting": "[2]", "result": "≥ 2", "unit": "µg/mL"}, {"measurement": "MIC", "setting": "[3]", "result": "≥ 2", "unit": "µg/mL"}, {"measurement": "MIC", "setting": "[4]", "result": "≥ 2", "unit": "µg/mL"}, {"measurement": "MIC", "setting": "[5]", "result": "≥ 2", "unit": "µg/mL"}, {"measurement": "MIC", "setting": "[6]", "result": "≥ 2", "unit": "µg/mL"}, {"measurement": "MIC", "setting": "[7]", "result": "≥ 2", "unit": "µg/mL"}]}, {"smiles": "CC[C@@H](CO)NCCN[C@@H](CC)CO", "note": "[ETHAMBUTOL]", "values": [{"measurement": "MIC", "setting": "[1]", "result": "≥ 8", "unit": "µg/mL"}, {"measurement": "MIC", "setting": "[2]", "result": "≤ 2", "unit": "µg/mL"}, {"measurement": "MIC", "setting": "[3]", "result": "≤ 2", "unit": "µg/mL"}, {"measurement": "MIC", "setting": "[4]", "result": "≥ 8", "unit": "µg/mL"}, {"measurement": "MIC", "setting": "[5]", "result": "≥ 8", "unit": "µg/mL"}, {"measurement": "MIC", "setting": "[6]", "result": "≤ 2", "unit": "µg/mL"}, {"measurement": "MIC", "setting": "[7]", "result": "≥ 8", "unit": "µg/mL"}]}, {"smiles": "CN[C@@H]1[C@H](O[C@H]2[C@H](O[C@H]3[C@H](O)[C@@H](O)[C@H](N=C(N)N)[C@@H](O)[C@@H]3N=C(N)N)O[C@@H](C)[C@]2(O)C=O)O[C@@H](CO)[C@H](O)[C@H]1O", "note": "[STREPTOMYCIN]", "values": [{"measurement": "MIC", "setting": "[1]", "result": "≥ 8", "unit": "µg/mL"}, {"measurement": "MIC", "setting": "[2]", "result": "≥ 8", "unit": "µg/mL"}, {"measurement": "MIC", "setting": "[3]", "result": "≥ 8", "unit": "µg/mL"}, {"measurement": "MIC", "setting": "[4]", "result": "≤ 2", "unit": "µg/mL"}, {"measurement": "MIC", "setting": "[5]", "result": "≤ 2", "unit": "µg/mL"}, {"measurement": "MIC", "setting": "[6]", "result": "≤ 2", "unit": "µg/mL"}, {"measurement": "MIC", "setting": "[7]", "result": "≥ 8", "unit": "µg/mL"}]}, {"smiles": "CC1COc2c(N3CCN(C)CC3)c(F)cc3c(=O)c(C(=O)O)cn1c23", "note": "(stereo unspecified) [OFLOXACIN]", "values": [{"measurement": "MIC", "setting": "[1]", "result": "≥ 4", "unit": "µg/mL"}, {"measurement": "MIC", "setting": "[2]", "result": "≤ 2", "unit": "µg/mL"}, {"measurement": "MIC", "setting": "[3]", "result": "≥ 4", "unit": "µg/mL"}, {"measurement": "MIC", "setting": "[4]", "result": "≥ 4", "unit": "µg/mL"}, {"measurement": "MIC", "setting": "[5]", "result": "≤ 2", "unit": "µg/mL"}, {"measurement": "MIC", "setting": "[6]", "result": "≤ 2", "unit": "µg/mL"}, {"measurement": "MIC", "setting": "[7]", "result": "≤ 2", "unit": "µg/mL"}]}, {"smiles": "C[n+]1cc2c(cn3c4ccccc4ccc23)c2ccccc21.[I-]", "values": [{"measurement": "MIC", "setting": "[8]", "result": 6.2, "unit": "µg/mL"}, {"measurement": "MIC", "setting": "[9]", "result": 6.2, "unit": "µg/mL"}]}, {"smiles": "CN1Cc2c(cn3c2ccc2ccccc23)-c2ccccc21", "values": [{"measurement": "MIC", "setting": "[8]", "result": 6.2, "unit": "µg/mL"}, {"measurement": "MIC", "setting": "[9]", "result": 3.1, "unit": "µg/mL"}]}, {"smiles": "NNC(=O)c1ccncc1", "note": "[ISONIAZID]", "values": [{"measurement": "MIC", "setting": "[1]", "result": "≥ 2", "unit": "µg/mL"}, {"measurement": "MIC", "setting": "[2]", "result": "≥ 2", "unit": "µg/mL"}, {"measurement": "MIC", "setting": "[3]", "result": "≥ 2", "unit": "µg/mL"}, {"measurement": "MIC", "setting": "[4]", "result": "≥ 2", "unit": "µg/mL"}, {"measurement": "MIC", "setting": "[5]", "result": "≥ 2", "unit": "µg/mL"}, {"measurement": "MIC", "setting": "[6]", "result": "≥ 2", "unit": "µg/mL"}, {"measurement": "MIC", "setting": "[7]", "result": "≥ 2", "unit": "µg/mL"}]}, {"smiles": "C/C=C/C1=CC=C/C(=C2\\C(=O)CNC2=O)O1", "note": "[VERMELHOTIN]", "values": [{"measurement": "MIC", "setting": "[8]", "result": 3.1, "unit": "µg/mL"}, {"measurement": "MIC", "setting": "[9]", "result": 6.2, "unit": "µg/mL"}]}]}
